From patent US20260317292A1, “SMALL MOLECULE THERAPY FOR DUCHENNE MUSCULAR DYSTROPHY” (The Regents of the University of California, priority 2023, published 2026)

Test system: endogenous SSPN protein with an N-term fusion protein (C2C12 cells)
Assay: C2C12 HiBiT assay (SSPN-HiBiT myotubes, primary screen)
Type: cell-based, murine
Settings: treated day 2, harvested day 4 of differentiation, concentration not given
Procedure: FIG. 1. Activity of DDL-463, DDL-465 (A) and DDL-472 (B) in HiBiT assay. Comparison of activity of the new compounds with parent compound (OT-9m) and vehicle-treated cells. SSPN-HiBiT myotubes were treated on day 2 and harvested on day 4 of differentiation. R.U.=relative units normalized to protein concentration and vehicle control (DMSO). n=18. **p<0.01, ****p<0.0001, ns-difference is non-significant from the vehicle-treated cells.
(§1) Comparison of activity of the new compounds of quinolone series (DDL-494, DDL-495, DDL-496) with parent compound (DDL-449 (aka OT-9m)) and vehicle-treated cells. SSPN-HiBiT myotubes were treated on day 2 and harvested on day 4 of differentiation. R.U.=relative units normalized to protein concentration and vehicle control (DMSO). n=18 for every compound concentration. *p<0.05; **p<0.01, ***p<0.001; ****p<0.0001
as §1, with “compound” for “compounds”, “coumarin” for “quinolone”, “(DDL-491)” for “(DDL-494, DDL-495, DDL-496)”, “(DDL-472)” for “(DDL-449 (aka OT-9m))”, “*p<0.05;” for “*p<0.05; **p<0.01, ***p<0.001;”
To assess activity of the new molecules, a C2C12 HiBiT assay was used as a primary screen. This assay is based on murine C2C12 cell line expressing endogenous SSPN protein with an N-term fusion protein described previously in WO 2022/055926.
Details on development of HiBiT assay for rapid testing of new analogues in vitro (FIG. 2A, B) are provided in PCT Pub. No. WO 2022/055926.

| SMILES | SSPN-HiBiT fold change over vehicle |
| --- | --- |
| COc1ccc2[nH]c(=O)c(C(=O)NC3=NNC(C(=O)N4CCCOCC4)N3)cc2c1 (stereo not drawn) [DDL-458] | ~1 fold |
| COc1ccc2[nH]c(=O)c(C(=O)Nc3c[nH]c(C(=O)N4CCCOCC4)n3)cc2c1 [DDL-459, N-(2-(1,4-oxazepane-4-carbonyl)-1H-imidazol-4-yl)-6-methoxy-2-oxo-1,2-dihydroquinoline-3-carboxamide] | ~1 fold |
| COc1ccc2cc(C(=O)Nc3ccc(C(=O)N4CCCOCC4)cc3)c(=O)[nH]c2c1 [DDL-460] | 1.1 fold |
| COc1cc2cc(C(=O)Nc3ccc(C(=O)N4CCCOCC4)cc3)c(=O)[nH]c2cc1OC [DDL-461] | 1.1 fold |
| O=C(Nc1ccc(C(=O)N2CCCOCC2)cc1)c1cc2ccccc2[nH]c1=O [DDL-462] | ~1 fold |
| O=C(Nc1ccc(C(=O)N2CCCOCC2)cc1)c1cc2cc(F)ccc2[nH]c1=O [DDL-463] | 1.4 fold |
| O=C(Nc1ccc(C(=O)N2CCCOCC2)cc1)c1cc2ccc(F)cc2[nH]c1=O [DDL-464] | ~1 fold |
| CC(=O)Nc1ccc2[nH]c(=O)c(C(=O)Nc3ccc(C(=O)N4CCCOCC4)cc3)cc2c1 [DDL-476] | ~1 fold |
| CC(C)Oc1ccc2cc(C(=O)Nc3ccc(C(=O)N4CCCOCC4)cc3)c(=O)oc2c1 [DDL-481] | ~0.9 fold |
| O=C(Nc1ccc(C(=O)N2CCCOCC2)cc1)c1cc2ccc(N3CCOCC3)cc2oc1=O [DDL-482] | ~1 fold |
| CN(C)c1ccc2cc(C(=O)Nc3ccc(C(=O)N4CCCOCC4)cc3)c(=O)oc2c1 [DDL-484] | 1.1 fold |
| C#CCN(CC)c1ccc2cc(C(=O)Nc3ccc(C(=O)N4CCCOCC4)cc3)c(=O)oc2c1 [DDL-489] | 1.2 fold |
| CC(C)N(c1ccc2cc(C(=O)Nc3ccc(C(=O)N4CCCOCC4)cc3)c(=O)oc2c1)C(C)C [DDL-491] | 1.4 fold |
| O=C(Nc1ccc(C(=O)N2CCCOCC2)cc1)c1cc2cc(Br)ccc2[nH]c1=O [DDL-496] | 1.3 fold |
| CC(C)Oc1ccc2[nH]c(=O)c(C(=O)Nc3ccc(C(=O)N4CCCOCC4)cc3)cc2c1 [DDL-762] | 1.4 fold |

Same assay, conditions: treated day 2, harvested day 4 of differentiation, vs vehicle

| SMILES | activity in HiBiT assay |
| --- | --- |
| O=C(Nc1ccc(C(=O)N2CCCOCC2)cc1)c1cc2cc(F)ccc2[nH]c1=O [DDL-463] | exhibit activity |
| CC(C)N(c1ccc2cc(C(=O)Nc3ccc(C(=O)N4CCCOCC4)cc3)c(=O)oc2c1)C(C)C [DDL-491] | active |
| O=C(Nc1ccc(C(=O)N2CCCOCC2)cc1)c1cc2cc(Br)ccc2[nH]c1=O [DDL-496] | active |
